Among the test systems are CCRF-CEM leukemia; HCT-116 colon; MALME-3M melanoma; OVCAR-3 ovarian; OVCAR-4 ovarian; PC-3 prostate; RXF 393 renal; SF-539 CNS; SNB-19 CNS; TK-10 renal.
What all share (assay): inhibition of tumour cell growth, NCI panel, 48 h

Molecules are shown by their SMILES.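 Values below derive from 48-hour exposures of cells grown in 96-well plates, with endpoints linearly interpolated between the two concentrations bracketing the appropriate inhibition level. GI50 marks 50% less growth. Definition used: TGI = concentration required for complete inhibition of growth.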

Experimental findings from PubChem BioAssay (NCI) are described below.

As for `CN(C)CCNC(=O)NC[C@H]1CC[C@@H]2[C@H](O1)c1cc(C(F)(F)F)ccc1N[C@H]2c1ccccc1`, the GI50 in the assay with CCRF-CEM leukemia is 137 nM; in the assay with HCT-116 colon, 41.4 nM; in the assay with MALME-3M melanoma it was 582 nM; with OVCAR-3 ovarian it was 264 nM; in the assay on OVCAR-4 ovarian, 3030 nM; with PC-3 prostate, 265 nM. For the same compound, the GI50 with RXF 393 renal was 249 nM; with SF-539 CNS, 187 nM; with SNB-19 CNS it was 624 nM; in the assay on TK-10 renal it was 9.78 µM. For the same compound, the TGI in the assay with CCRF-CEM leukemia was 3.85 µM; in the assay on HCT-116 colon, 14.7 µM; in the assay on MALME-3M melanoma it was 22.4 µM; with OVCAR-3 ovarian, 10.3 µM; in the assay on OVCAR-4 ovarian it was 22.2 µM; in the assay on PC-3 prostate it was 27 µM. For the same compound, the TGI was 18.4 µM in the assay with RXF 393 renal, 8.31 µM with SF-539 CNS, greater than 100 µM in the assay on SNB-19 CNS and 27.5 µM with TK-10 renal.

`C[CH2][Sn]([CH2]C)([O]C(=O)c1ccc(OC)c(OC)c1OC)[O]C(=O)c1ccc(OC)c(OC)c1OC`: the GI50 is 13900 nM with CCRF-CEM leukemia; greater than 100000 nM in the assay with HCT-116 colon; 21200 nM in the assay on MALME-3M melanoma; greater than 100000 nM with OVCAR-3 ovarian; greater than 82600 nM in the assay on OVCAR-4 ovarian; greater than 100000 nM with PC-3 prostate. Further, the GI50 in the assay on RXF 393 renal is 14400 nM; in the assay with SF-539 CNS, 44300 nM; with SNB-19 CNS, 53500 nM; in the assay on TK-10 renal it was 52.6 µM. In addition, the TGI with CCRF-CEM leukemia was 56.8 µM; with HCT-116 colon, greater than 100 µM; with MALME-3M melanoma, 50.6 µM; in the assay on OVCAR-3 ovarian, greater than 100 µM; in the assay on OVCAR-4 ovarian, greater than 100 µM; in the assay with PC-3 prostate, greater than 100 µM. Also, the TGI is 30.6 µM in the assay on RXF 393 renal, greater than 71.8 µM in the assay with SF-539 CNS, greater than 67.5 µM with SNB-19 CNS and greater than 68.2 µM in the assay with TK-10 renal.

Consider `C#Cc1cccc(NC(=O)c2ccc(NC(=O)CCl)cc2)c1`, for which the GI50 in the assay on CCRF-CEM leukemia is 7370 nM; with HCT-116 colon, 11900 nM; in the assay on MALME-3M melanoma, 16400 nM; with OVCAR-3 ovarian it was 12700 nM; with OVCAR-4 ovarian, 16700 nM; with PC-3 prostate, 15400 nM. The GI50 with RXF 393 renal was 23900 nM; with SF-539 CNS it was 12600 nM; in the assay on SNB-19 CNS, 55600 nM; with TK-10 renal it was 42.7 µM. The TGI in the assay on CCRF-CEM leukemia stood at 32.4 µM; in the assay with HCT-116 colon, 36.3 µM; in the assay with MALME-3M melanoma, 53.3 µM; in the assay with OVCAR-3 ovarian, 25.7 µM; in the assay on OVCAR-4 ovarian, 72 µM; in the assay with PC-3 prostate it was 60.4 µM. The TGI in the assay with RXF 393 renal was greater than 82.5 µM; in the assay on SF-539 CNS, 24.7 µM; in the assay with SNB-19 CNS, greater than 82.5 µM; in the assay with TK-10 renal, greater than 82.5 µM.

As to `COc1cccc(Nc2nccc(-c3cnn4ncccc34)n2)c1`, the GI50 was 72.3 nM with CCRF-CEM leukemia; 47.8 nM in the assay with HCT-116 colon; 73.9 nM in the assay with MALME-3M melanoma; 90.3 nM with OVCAR-4 ovarian; 65.2 nM in the assay with PC-3 prostate; 44.9 nM with RXF 393 renal. Besides, the results for the GI50 in the assay with SF-539 CNS and with SNB-19 CNS were 50.2 nM and 83.3 nM, respectively. Further, the TGI in the assay on HCT-116 colon is greater than 11 µM; with MALME-3M melanoma it was 0.204 µM; with OVCAR-4 ovarian, 17.8 µM; with PC-3 prostate, 1.32 µM; in the assay on RXF 393 renal, 0.108 µM; with SF-539 CNS, 0.143 µM. Also, in the assay with SNB-19 CNS, the TGI was greater than 25 µM.

As to `C=CCc1c(O)c(C(=O)/C=C/c2ccccc2)c(OC)c2ccoc12`, the GI50 in the assay on CCRF-CEM leukemia was 2750 nM; with HCT-116 colon it was 3030 nM; in the assay on MALME-3M melanoma, 5800 nM; in the assay on OVCAR-3 ovarian, 2460 nM; in the assay on OVCAR-4 ovarian, 2890 nM; with PC-3 prostate it was 3680 nM. Moreover, the GI50 was 1850 nM with RXF 393 renal, 1710 nM in the assay with SF-539 CNS, 2850 nM with SNB-19 CNS and 4.96 µM with TK-10 renal. Also, the TGI in the assay on CCRF-CEM leukemia is greater than 100 µM; in the assay with HCT-116 colon it was 11.1 µM; with MALME-3M melanoma, 20.2 µM; in the assay on OVCAR-3 ovarian it was 7.06 µM; in the assay on OVCAR-4 ovarian, 12.8 µM; with PC-3 prostate it was 16.8 µM. The TGI in the assay on RXF 393 renal turned out to be 5.62 µM; with SF-539 CNS, 3.93 µM; with SNB-19 CNS, 10.7 µM; in the assay with TK-10 renal, 17.3 µM.

On to `C/C(=N/Nc1nc(C)cc(=O)[nH]1)C(=O)O`, for which the TGI in the assay with CCRF-CEM leukemia, with HCT-116 colon, with MALME-3M melanoma, in the assay on OVCAR-3 ovarian, with OVCAR-4 ovarian and with PC-3 prostate was greater than 100 µM each time. In addition, the TGI with RXF 393 renal, in the assay with SNB-19 CNS and in the assay on TK-10 renal was greater than 100 µM in each case.

Turning to `COc1ccc2c(c1OC(C)=O)C1=CC(=O)CCC13CCNC3C2` (stereo not given), the TGI in the assay on CCRF-CEM leukemia, in the assay on HCT-116 colon, in the assay on MALME-3M melanoma, with OVCAR-3 ovarian, in the assay with OVCAR-4 ovarian and in the assay on PC-3 prostate was greater than 100 µM each time. Moreover, the TGI with RXF 393 renal, in the assay on SNB-19 CNS and with TK-10 renal was greater than 100 µM in each case.

Turning to `CC1=C([Se]CC(OC(=O)[C@@H](CO)NC(=O)OC(C)(C)C)C(=O)NCCCCCC(=O)OCc2ccccc2)C(=O)c2ccccc2C1=O` (stereo not given in full), the GI50 with HCT-116 colon was 1390 nM; in the assay on MALME-3M melanoma it was 2070 nM; in the assay on OVCAR-3 ovarian, 1790 nM; in the assay on OVCAR-4 ovarian it was 1530 nM; in the assay with PC-3 prostate, 1230 nM; in the assay on RXF 393 renal it was 2700 nM. Also, the GI50 in the assay on SF-539 CNS was 1700 nM; with SNB-19 CNS it was 774 nM; in the assay on TK-10 renal it was 2.04 µM. The TGI in the assay on HCT-116 colon was 2.73 µM; in the assay on MALME-3M melanoma it was 3.82 µM; in the assay with OVCAR-3 ovarian, 3.19 µM; with OVCAR-4 ovarian it was 2.86 µM; with PC-3 prostate, 2.58 µM; in the assay on RXF 393 renal, 4.18 µM. Besides, the TGI in the assay with SF-539 CNS came out at 3.09 µM; with SNB-19 CNS it was 2.11 µM; with TK-10 renal it was 3.47 µM.

Turning to `CN1CCN(Cc2cc(NC(=O)c3cccc(C#Cc4cccc5[nH]nc(N)c45)c3)cc(C(F)(F)F)c2)CC1`, the GI50 with MALME-3M melanoma is 1230 nM; with OVCAR-3 ovarian, 1920 nM; in the assay with OVCAR-4 ovarian, 1590 nM; in the assay on PC-3 prostate, 1810 nM; in the assay on RXF 393 renal it was 1460 nM; in the assay on SF-539 CNS it was 1170 nM. For the same compound, the GI50 in the assay on TK-10 renal was 1.96 µM. Besides, the TGI came out at 2.69 µM in the assay with MALME-3M melanoma; 3.56 µM in the assay with OVCAR-3 ovarian; 3.97 µM with OVCAR-4 ovarian; 3.52 µM in the assay with PC-3 prostate; 2.83 µM in the assay with RXF 393 renal; 2.43 µM with SF-539 CNS. This compound also yielded a TGI in the assay on TK-10 renal of 3.38 µM.
